One may read the inhibition of growth as how much of the control response was suppressed.

Data on 70 compounds can be found in US7718651B2, “Inhibitors of FtsZ and uses thereof” (priority 2002, dated 2010).

The subject of one test is M. tuberculosis H37Rv. The test can be described thus: microbe, parasite or virus in culture.
Details: not given
It counts as cell-based.
In the case of `CCOC(=O)Nc1cc(NCCCCc2ccccc2)c(N)c(N)n1` [Compound A93], the “% Inh” value was 60%. `CCOC(=O)Nc1cc2c(c(N)n1)N=C(c1ccccc1)[C@@H](C)N2` [Compound A98]: the “% Inh” value came out at 57%.

Take `CCOC(=O)Nc1cc2c(c(N)n1)N=C(c1ccccc1)[C@H](C)N2` [Compound A108]: the “% Inh” value is recorded as 45%.

Staying with this test, now noted: M. tuberculosis H37Rv, screen concentration 12.5 g/ml [sic], Table 8.
For the compound `CCOC(=O)Nc1cc2[nH]c(-c3ccccc3)nc2c(N(C)Cc2ccccc2)n1` [Compound A3], the “% Inh” value worked out at 99%. On the same count and under the same terms, the value for `CCOC(=O)Nc1cc2[nH]c(-c3ccc(Cl)cc3)nc2c(N(CCc2ccccc2)Cc2ccccc2)n1` [Compound A4] was 99%. The same measure, in the same setting: the value for `CCOC(=O)Nc1cc2[nH]c(-c3ccc(C)cc3)nc2c(N(CC)CC)n1` [Compound A13] was 98%.

As to `CCOC(=O)Nc1cc2[nH]c(-c3ccc([N+](=O)[O-])cc3)nc2c(N(CCc2ccccc2)Cc2ccccc2)n1` [Compound A14], the “% Inh” value is given as 98%. Still for that read-out and setting: as for `CCOC(=O)Nc1cc2[nH]c(-c3ccc(Oc4ccccc4)cc3)nc2c(N(CCc2ccccc2)Cc2ccccc2)n1` [Compound A15], the figure is 98%. Same read-out and setting: as for `CCOC(=O)Nc1cc2[nH]c(-c3ccc(OC)cc3)nc2c(N(CCc2ccccc2)Cc2ccccc2)n1` [Compound A16], the figure is 98%. Still for that read-out and setting: as for `CCOC(=O)Nc1cc2[nH]c(-c3ccc(CC)cc3)nc2c(N(CCc2ccccc2)Cc2ccccc2)n1` [Compound A17], the figure is 98%; as for `CCOC(=O)Nc1cc2[nH]c(-c3cccc4ccccc34)nc2c(N(CCc2ccccc2)Cc2ccccc2)n1` [Compound A18], 98%; as for `CCOC(=O)Nc1cc2[nH]c(CCc3ccccc3)nc2c(N(CCc2ccccc2)Cc2ccccc2)n1` [Compound A19], 98%. As to `CCOC(=O)Nc1cc2[nH]c(-c3ccccc3F)nc2c(N(CCc2ccccc2)Cc2ccccc2)n1` [Compound A20], the “% Inh” value was found to be 98%. Regarding `CCOC(=O)Nc1cc2nc(-c3ccc(Cl)cc3)[nH]c2c(N(CCc2ccccc2)Cc2ccccc2)n1` [Compound A27], the “% Inh” value was found to be 97%. Same read-out and setting: the value for `CCOC(=O)Nc1cc2[nH]c(-c3cc(OC)c(OC)c(OC)c3)nc2c(N(CCc2ccccc2)Cc2ccccc2)n1` [Compound A28] was 97%; that for `CCOC(=O)Nc1cc2[nH]c(-c3cc(OC)c(OC)cc3OC)nc2c(N(CCc2ccccc2)Cc2ccccc2)n1` [Compound A29] was 97%. On the same count and under the same terms, the value for `COc1ccc(OC)c(-c2nc3c(N(CCc4ccccc4)Cc4ccccc4)nc(NC(=O)O)cc3[nH]2)c1` [Compound A30] was 97%; that for `CCOC(=O)Nc1cc2[nH]c(-c3ccccc3)nc2c(N(CCc2ccccc2)Cc2ccccc2)n1` [Compound A31] was 97%.

In the case of `CCOC(=O)Nc1cc2[nH]c(-c3ccc(C(F)(F)F)cc3)nc2c(N(CCc2ccccc2)Cc2ccccc2)n1` [Compound A32], the “% Inh” value came to 97%.

In the case of `CCOC(=O)Nc1cc(OCC)c2nc(-c3ccccc3)c(-c3ccccc3)nc2n1` [Compound A38], the “% Inh” value worked out at 95%. Same read-out and setting: the value for `CCOC(=O)Nc1cc2c(c(N)n1)N=C(CN(C)c1ccccc1)CN2` [Compound A45] was 93%; that for `CCOC(=O)Nc1cc(N/N=C/c2ccccc2)c2nc[nH]c2n1` [Compound A48] was 92%. Same read-out and setting: as for `CCOC(=O)Nc1cc2nc(-c3ccccc3)c(-c3ccccc3)nc2c(N)n1` [Compound A49], the figure is 92%. The same measure, in the same setting: the value for `CCOC(=O)Nc1cc(N/N=C/c2ccccc2)c(N)c(N)n1` [Compound A54] was 91%. Consider `CCOC(=O)Nc1cc(N/N=C/c2ccccc2)c2nc(SCc3ccccc3)[nH]c2n1` [Compound A57], for which the “% Inh” value was found to be 89%.

With `CCOC(=O)Nc1cc(NC/C(=N/O)c2ccc(Cl)cc2Cl)c([N+](=O)[O-])c(N)n1` [Compound A58], the “% Inh” value turned out to be 89%.

As for `CCOC(=O)Nc1cc(Nc2ccccc2)c([N+](=O)[O-])c(N)n1` [Compound A59], the “% Inh” value worked out at 88%.

On to `CCOC(=O)Nc1cc2c(c(N)n1)N=C(c1ccc(F)cc1)CN2` [Compound A60], for which the “% Inh” value was determined as 87%.

Take `CCOC(=O)Nc1cc(NC(c2ccccc2)c2ccccc2)c2ncc(O)nc2n1` [Compound A61]: the “% Inh” value worked out at 87%. The same measure, in the same setting: the value for `CCOC(=O)Nc1cc(NCC(O)CN(C)c2ccc(C)cc2)c([N+](=O)[O-])c(N)n1.Cl` (stereo not drawn) [Compound A62] was 86%; that for `CCOC(=O)Nc1cc(NCC(O)CN(C)c2ccccc2)c2nc(O)[nH]c2n1` (stereo not drawn) [Compound A63] was 86%; that for `CCOC(=O)Nc1cc(Nc2ccccc2)c2nc[nH]c2n1.Cl` [Compound A64] was 84%. For the compound `CCOC(=O)Nc1cc2c(c(N)n1)N=C(c1ccccc1)CN2` [Compound A65], the “% Inh” value is 83%. Still for that read-out and setting: as for `CCOC(=O)Nc1cc(NCc2ccccc2)c([N+](=O)[O-])c(N)n1` [Compound A66], the figure is 83%.

With `CCCCC(Nc1cc(NC(=O)OCC)nc(N)c1[N+](=O)[O-])C(C)=O` (stereo not drawn) [Compound A67], the “% Inh” value is given as 81%. On the same count and under the same terms, as for `CCOC(=O)Nc1cc2c(c(N)n1)N=C(c1cccc(OC)c1)CS2` [Compound A68], the figure is 79%; as for `CCOC(=O)Nc1cc2[nH]c(C)nc2c(N(CCc2ccccc2)Cc2ccccc2)n1` [Compound A69], 71%. `CCOC(=O)Nc1cc(NC(c2ccccc2)c2ccccc2)c2[nH]c(=O)cnc2n1` [Compound A70]: the “% Inh” value is 76%. Same read-out and setting: the value for `CCOC(=O)Nc1cc(N/N=C/c2ccccc2)c2[nH]c(=S)[nH]c2n1` [Compound A71] was 75%; that for `CCOC(=O)Nc1cc2nc(-c3ccccc3)c(-c3ccccc3)nc2c(OCC)n1` [Compound A72] was 75%. On the same count and under the same terms, the value for `CCOC(=O)Nc1cc(NCCc2ccccc2)c2nc[nH]c2n1` [Compound A73] was 74%; that for `CCOC(=O)Nc1cc2c(c(N)n1)N=C(Cc1ccccc1)[C@H](C)N2` [Compound A74] was 72%; that for `Br.CCOC(=O)Nc1cc(N)c([N+](=O)[O-])c(NCC(C)=O)n1` [Compound A75] was 72%. Still for that read-out and setting: as for `CCOC(=O)Nc1cc(N)c([N+](=O)[O-])c(Cl)n1` [Compound A76], the figure is 72%; as for `CCOC(=O)Nc1cc2c(c(N)n1)N=C(c1ccccc1)CS2` [Compound A77], 71%; as for `CCOC(=O)Nc1cc2ncc(CN(C)c3ccccc3)nc2c(N)n1` [Compound A78], 71%.

As for `CCOC(=O)Nc1cc2c(c(N)n1)N=C(CN(C)c1ccccc1)CN2` [Compound A80], the “% Inh” value is 70%. Still for that read-out and setting: as for `CCOC(=O)Nc1cc(N)c2ncn(/N=C/c3ccccc3)c2n1` [Compound A81], the figure is 69%. Same read-out and setting: as for `CCOC(=O)Nc1cc(NCCc2ccccc2)c([N+](=O)[O-])c(N)n1` [Compound A82], the figure is 68%. On the same count and under the same terms, the value for `CCOC(=O)Nc1cc(SC(=N)N)c([N+](=O)[O-])c(N)n1` [Compound A84] was 66%; that for `CCOC(=O)Nc1cc2c(c(N)n1)N=C1c3ccccc3CCC1O2.Cl.Cl` (stereo not drawn) [Compound A85] was 65%; that for `CCOC(=O)Nc1cc(NCCCCc2ccccc2)c2nc[nH]c2n1` [Compound A86] was 65%. For `CCCCC1Nc2cc(NC(=O)OCC)nc(N)c2N=C1C` (stereo not drawn) [Compound A87], the “% Inh” value was 64%. Still for that read-out and setting: as for `CCOC(=O)Nc1cc2c(c(N)n1)N=C(c1ccc(C)c(C)c1)CN2` [Compound A88], the figure is 64%. The same measure, in the same setting: the value for `CCOC(=O)Nc1cc2c(nc(-c3ccccc3)n2C(c2ccccc2)c2ccccc2)c(Cl)n1` [Compound A89] was 63%; that for `CCOC(=O)Nc1cc(NCCCCc2ccccc2)c([N+](=O)[O-])c(N)n1` [Compound A90] was 62%; that for `CCOC(=O)Nc1cc2c(nc(SCc3ccc4c(c3)OCO4)n2N)c(N)n1` [Compound A91] was 61%.

With `CCOC(=O)Nc1cc(Nc2ccc(Cl)cc2)c(N)c(N)n1` [Compound A92], the “% Inh” value turned out to be 61%. Still for that read-out and setting: as for `CCOC(=O)Nc1cc(Cl)c([N+](=O)[O-])c(NC(=O)OCC)n1` [Compound A94], the figure is 59%; as for `CCOC(=O)Nc1cc(NCCc2ccccc2)c(N)c(N)n1.Cl.Cl` [Compound A95], 59%; as for `CCOC(=O)Nc1cc2c(c(N)n1)N=C(c1ccc3ccccc3c1)CS2` [Compound A97], 58%.

Take `CCOC(=O)Nc1cc(NC(C)[C@H](O)c2ccccc2)c(N)c(N)n1` (stereo partly drawn) [Compound A99]: the “% Inh” value is reported as 56%.

As for `CCOC(=O)Nc1cc(NCC(O)CN(C)c2ccccc2)c([N+](=O)[O-])c(N)n1` (stereo not drawn) [Compound A101], the “% Inh” value was found to be 54%. Still for that read-out and setting: the value for `CCOC(=O)Nc1cc(NC(C)CCCN(CC)CC)c2ncc(-c3ccc(C(F)(F)F)cc3)nc2n1` (stereo not drawn) [Compound A102] was 54%; that for `CCOC(=O)Nc1cc(N)c2ncn(-c3ccccc3)c2n1` [Compound A103] was 53%. The same measure, in the same setting: the value for `CCOC(=O)Nc1cc(NC(C)C(O)Cc2ccccc2)c([N+](=O)[O-])c(N)n1` (stereo not drawn) [Compound A104] was 51%; that for `CCOC(=O)Nc1cc2c(cn1)N=C(c1ccccc1)[C@H](C)N2` [Compound A105] was 49%. Still for that read-out and setting: the value for `CCOC(=O)Nc1cc(Cl)c([N+](=O)[O-])c(N)n1` [Compound A106] was 49%.

Staying with this test, now noted: Mycobacterium tuberculosis; M. tuberculosis H37Rv; at 12.5% μg/ml (so in the source); read-out: Primary Screen PI (% inhibition of growth).
For `CCOC(=O)Nc1cc2nc(-c3ccccc3)c(-c3ccccc3)nc2c(N)n1` [Compound 3302-89F, (5-Amino-2,3-diphenyl-pyrido[3,4-b]pyrazin-7-yl)-carbamic acid ethyl ester], the inhibition of growth at 12.5 µg/mL came out at 92%. In the case of `CCOC(=O)Nc1cc2nc(-c3ccccc3)c(-c3ccccc3)nc2c(OCC)n1` [Compound 3491-23, (5-Ethoxy-2,3-diphenyl-pyrido[3,4-b]pyrazin-7-yl)-carbamic acid ethyl ester], the inhibition of growth at 12.5 µg/mL came to 95%.

Staying with this test, now noted: in words.
For the compound `CCOC(=O)Nc1cc2nc(-c3ccccc3)c(-c3ccccc3)nc2c(N)n1` [Compound 3302-89F, (5-Amino-2,3-diphenyl-pyrido[3,4-b]pyrazin-7-yl)-carbamic acid ethyl ester], the “activity against M. tuberculosis H37Rv in the primary screen” value is listed as “demonstrated activity”. Take `CCOC(=O)Nc1cc2nc(-c3ccccc3)c(-c3ccccc3)nc2c(OCC)n1` [Compound 3491-23, (5-Ethoxy-2,3-diphenyl-pyrido[3,4-b]pyrazin-7-yl)-carbamic acid ethyl ester]: the “activity against M. tuberculosis H37Rv in the primary screen” value is on record as “demonstrated activity”.
